Measurements: patent US12083124B2 (Incyte Corporation, priority 2019, dated 2024)
Read-outs that look alike come from different tables or passages of the source.

Key:
[1] = biological target: wild-type un-phosphorylated FGFR2 (Homo sapiens, UniProt P21802); assay: FGFR Enzymatic Assay (FRET peptide phosphorylation), FGFR2
Procedure: The inhibitor potency of the exemplified compounds was determined in an enzyme discontinuous assay that measures peptide phosphorylation using FRET measurements to detect product formation. Inhibitors were serially diluted in DMSO and a volume of 0.2 μL was transferred to the wells of a 384-well plate. […] Appropriate controls (enzyme blank and enzyme with no inhibitor) were included on the plate. […] The 10 μL/well reaction concentration of the peptide substrate was 500 nM whereas the ATP concentration was maintained near or below the ATP Km. The ATP Km values were pre-determined in a separate series of experiments. The reaction plate was incubated at 25° C. for 1 hr and the reactions were ended with the addition of 5 μL/well of quench solution (50 mM Tris, 150 mM NaCl, 0.5 mg/mL BSA, pH 7.8; 45 mM EDTA, 600 nM staurosporin, with Perkin Elmer Lance Reagents at 3.75 nM Eu-antibody PY20 and 180 nM APC-Streptavidin). The plate was allowed to equilibrate for ˜10 minutes at ambient temperature before scanning on a PheraStar plate reader (BMG Labtech) instrument.
Either GraphPad prism or XLfit was used to analyze the data. The IC50 values were derived by fitting the data to a four parameter logistic equation producing a sigmoidal dose-response curve with a variable Hill coefficient. Prism equation: Y=Bottom+(Top-Bottom)/(1+10^((Log IC50-X)*Hill slope)); XLfit equation: Y=(A+((B−A)/(1+((X/C)^D)))) where X is the logarithm of inhibitor concentration and Y is the response.
GraphPad prism3 was used to analyze the data. The IC50 values were derived by fitting the data to the equation for a sigmoidal dose-response with a variable slope. Y=Bottom+(Top-Bottom)/(1+10^((Log IC50-X)*Hill Slope)) where X is the logarithm of concentration and Y is the response.
The data in Table 1 was measured in wild-type un-phosphorylated FGFR1, FGFR2, FGFR3, and FGFR4 proteins.

[2] = biological target: wild-type un-phosphorylated FGFR4 (Homo sapiens, UniProt P22455); assay: FGFR Enzymatic Assay (FRET peptide phosphorylation), FGFR4
[3] = biological target: wild-type un-phosphorylated FGFR3 (Homo sapiens, UniProt P22607); assay: FGFR Enzymatic Assay (FRET peptide phosphorylation), FGFR3
Sequence of wild-type un-phosphorylated FGFR3 (P22607 23-806): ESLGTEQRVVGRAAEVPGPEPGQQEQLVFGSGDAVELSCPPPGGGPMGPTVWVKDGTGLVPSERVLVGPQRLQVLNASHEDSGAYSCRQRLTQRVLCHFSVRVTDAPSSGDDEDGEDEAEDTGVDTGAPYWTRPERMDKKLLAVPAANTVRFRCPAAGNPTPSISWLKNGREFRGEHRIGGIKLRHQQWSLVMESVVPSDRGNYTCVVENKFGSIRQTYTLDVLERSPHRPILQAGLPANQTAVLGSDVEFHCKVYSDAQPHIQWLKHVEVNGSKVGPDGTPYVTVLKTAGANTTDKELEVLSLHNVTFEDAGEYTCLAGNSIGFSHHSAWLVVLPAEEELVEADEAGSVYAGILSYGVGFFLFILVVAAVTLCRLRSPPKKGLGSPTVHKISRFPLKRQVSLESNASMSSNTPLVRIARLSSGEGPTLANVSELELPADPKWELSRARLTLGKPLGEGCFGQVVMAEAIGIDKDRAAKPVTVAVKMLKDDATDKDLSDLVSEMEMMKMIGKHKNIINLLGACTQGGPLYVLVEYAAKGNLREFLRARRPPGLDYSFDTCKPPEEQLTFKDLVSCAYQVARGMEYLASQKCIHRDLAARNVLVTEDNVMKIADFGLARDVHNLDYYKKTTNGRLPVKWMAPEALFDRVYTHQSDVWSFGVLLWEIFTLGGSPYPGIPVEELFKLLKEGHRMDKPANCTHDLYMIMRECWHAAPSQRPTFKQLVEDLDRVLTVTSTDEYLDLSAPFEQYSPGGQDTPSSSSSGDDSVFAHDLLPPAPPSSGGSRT

[4] = biological target: wild-type un-phosphorylated FGFR1 (Homo sapiens, UniProt P11362); assay: FGFR Enzymatic Assay (FRET peptide phosphorylation), FGFR1; conditions: pre-incubated for 4 hours
Sequence of wild-type un-phosphorylated FGFR1 (P11362 22-822): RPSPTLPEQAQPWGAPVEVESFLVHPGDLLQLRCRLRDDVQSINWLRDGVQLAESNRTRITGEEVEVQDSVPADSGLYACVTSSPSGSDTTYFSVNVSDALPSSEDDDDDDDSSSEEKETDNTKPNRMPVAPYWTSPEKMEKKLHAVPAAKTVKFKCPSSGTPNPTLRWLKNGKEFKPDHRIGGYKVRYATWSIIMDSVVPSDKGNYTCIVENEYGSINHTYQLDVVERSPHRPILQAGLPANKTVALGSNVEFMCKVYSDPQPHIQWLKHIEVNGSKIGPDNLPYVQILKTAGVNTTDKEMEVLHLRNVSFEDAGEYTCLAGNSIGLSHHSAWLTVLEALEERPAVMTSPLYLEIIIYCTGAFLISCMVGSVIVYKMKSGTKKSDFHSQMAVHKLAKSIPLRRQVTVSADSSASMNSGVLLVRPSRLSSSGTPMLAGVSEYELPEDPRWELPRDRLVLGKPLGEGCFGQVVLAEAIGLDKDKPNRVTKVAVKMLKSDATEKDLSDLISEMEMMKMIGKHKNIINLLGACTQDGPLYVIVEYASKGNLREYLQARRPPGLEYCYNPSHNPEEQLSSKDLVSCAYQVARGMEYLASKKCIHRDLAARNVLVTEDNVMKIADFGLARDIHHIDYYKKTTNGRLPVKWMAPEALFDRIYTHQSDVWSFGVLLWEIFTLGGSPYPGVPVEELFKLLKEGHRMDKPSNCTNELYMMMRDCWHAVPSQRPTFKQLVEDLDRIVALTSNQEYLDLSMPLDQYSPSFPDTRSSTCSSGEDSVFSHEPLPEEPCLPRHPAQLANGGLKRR

[5] = read-out: FGFR1, wild-type un-phosphorylated FGFR1
[6] = read-out: FGFR4, wild-type un-phosphorylated FGFR4, pre-incubated for 4 hours
[7] = read-out: FGFR2, wild-type un-phosphorylated FGFR2, pre-incubated for 4 hours
[8] = FGFR1, wild-type un-phosphorylated FGFR1

Sequence of wild-type un-phosphorylated FGFR4 (P22455 22-802): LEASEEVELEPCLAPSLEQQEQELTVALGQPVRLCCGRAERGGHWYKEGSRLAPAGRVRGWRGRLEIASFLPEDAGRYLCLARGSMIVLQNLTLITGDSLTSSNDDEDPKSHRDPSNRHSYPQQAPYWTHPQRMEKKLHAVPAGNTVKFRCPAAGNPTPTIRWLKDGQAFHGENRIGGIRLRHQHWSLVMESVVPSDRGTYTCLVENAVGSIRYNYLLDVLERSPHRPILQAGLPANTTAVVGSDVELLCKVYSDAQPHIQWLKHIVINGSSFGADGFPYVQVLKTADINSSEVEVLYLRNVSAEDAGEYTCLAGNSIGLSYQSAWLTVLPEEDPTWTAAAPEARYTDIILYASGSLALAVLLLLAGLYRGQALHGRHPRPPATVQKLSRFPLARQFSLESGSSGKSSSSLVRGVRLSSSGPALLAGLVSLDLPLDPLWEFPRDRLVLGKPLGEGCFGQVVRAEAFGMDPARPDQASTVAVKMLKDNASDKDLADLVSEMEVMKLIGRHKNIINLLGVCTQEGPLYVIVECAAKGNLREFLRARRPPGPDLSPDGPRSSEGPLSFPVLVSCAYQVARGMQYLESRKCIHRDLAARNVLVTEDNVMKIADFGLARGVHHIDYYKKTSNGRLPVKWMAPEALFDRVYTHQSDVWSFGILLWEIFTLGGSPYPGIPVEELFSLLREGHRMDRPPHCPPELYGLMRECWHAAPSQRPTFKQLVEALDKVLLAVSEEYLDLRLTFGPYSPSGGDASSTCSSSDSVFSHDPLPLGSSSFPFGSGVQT
Sequence of wild-type un-phosphorylated FGFR2 (P21802 22-821): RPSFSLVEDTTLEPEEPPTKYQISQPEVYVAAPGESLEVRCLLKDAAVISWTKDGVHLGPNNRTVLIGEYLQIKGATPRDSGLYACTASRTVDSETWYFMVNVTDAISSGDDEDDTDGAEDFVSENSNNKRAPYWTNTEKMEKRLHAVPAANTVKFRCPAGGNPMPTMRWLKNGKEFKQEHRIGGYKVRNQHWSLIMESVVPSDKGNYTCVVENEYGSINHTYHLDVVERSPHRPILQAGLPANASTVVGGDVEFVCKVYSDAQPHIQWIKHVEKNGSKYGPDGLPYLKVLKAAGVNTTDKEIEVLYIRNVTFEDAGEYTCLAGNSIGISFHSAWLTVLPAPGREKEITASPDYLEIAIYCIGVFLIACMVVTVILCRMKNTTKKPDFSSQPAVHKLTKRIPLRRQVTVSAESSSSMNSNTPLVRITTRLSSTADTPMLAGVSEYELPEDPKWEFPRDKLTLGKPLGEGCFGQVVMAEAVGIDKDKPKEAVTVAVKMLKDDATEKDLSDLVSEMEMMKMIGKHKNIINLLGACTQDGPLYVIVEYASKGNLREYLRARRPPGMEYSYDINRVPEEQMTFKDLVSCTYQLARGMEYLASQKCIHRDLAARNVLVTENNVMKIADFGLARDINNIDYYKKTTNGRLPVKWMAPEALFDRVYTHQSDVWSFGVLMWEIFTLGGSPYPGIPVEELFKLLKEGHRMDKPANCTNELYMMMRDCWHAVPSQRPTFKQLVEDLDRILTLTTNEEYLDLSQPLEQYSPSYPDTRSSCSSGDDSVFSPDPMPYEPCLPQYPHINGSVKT

| Structure (SMILES) | IC50 [1] | IC50 [2] | IC50 [3] | IC50 [4, 5] | IC50 [2, 6] | IC50 [1, 7] | IC50 [4, 8] |
| --- | --- | --- | --- | --- | --- | --- | --- |
| COc1cc2[nH]nc(-c3cnn([C@@H]4CCN(C(=O)[C@@H]5COCCN5C)C4)c3)c2nc1-c1cccc2c1CCC2 [Example 137, ((R)-3-(4-(5-(2,3-Dihydro-1H-inden-4-yl)-6-methoxy-1H-pyrazolo[4,3-b]pyridin-3-yl)-1H-pyrazol-1-yl)pyrrolidin-1-yl)((S)-4-methylmorpholin-3-yl)methanone] | < 6 nM | 40 to 100 nM | < 6 nM | 6 to 40 nM |  |  |  |
| COc1cc2[nH]nc(-c3ccc(C4CCN(C(=O)N5CCOCC5)C4)nc3)c2nc1-c1cccc2c1CCC2C#N (single isomer, unassigned) [Example 184, 4-(6-Methoxy-3-(6-(1-(morpholine-4-carbonyl)pyrrolidin-3-yl)pyridin-3-yl)-1H-pyrazolo[4,3-b]pyridin-5-yl)-2,3-dihydro-1H-indene-1-carbonitrile] | < 6 nM |  | < 6 nM | 6 to 40 nM | 6 to 40 nM |  |  |
| COc1cc2[nH]nc(-c3cnn(CCC#N)c3)c2nc1-c1cccc2c1CCC2 [Example 30, 3-(4-(5-(2,3-Dihydro-1H-inden-4-yl)-6-methoxy-1H-pyrazolo[4,3-b]pyridin-3-yl)-1H-pyrazol-1-yl)propanenitrile] |  | 40 to 100 nM | < 6 nM |  |  | 6 to 40 nM | > 100 nM |
| COc1cc2[nH]nc(-c3cnn(C)c3)c2nc1-c1cccc(C)c1C [Example 1, 5-(2,3-Dimethylphenyl)-6-methoxy-3-(1-methyl-1H-pyrazol-4-yl)-1H-pyrazolo[4,3-b]pyridine] |  | > 100 nM | < 6 nM |  |  | 6 to 40 nM | > 100 nM |
| CCN1CCN(c2ccc(-c3n[nH]c4cc(OC)c(-c5cccc(C)c5C)nc34)cn2)CC1 [Example 42, 5-(2,3-Dimethylphenyl)-3-(6-(4-ethylpiperazin-1-yl)pyridin-3-yl)-6-methoxy-1H-pyrazolo[4,3-b]pyridine] | < 6 nM | > 100 nM | < 6 nM |  |  |  | 40 to 100 nM |
| COc1cc2[nH]nc(-c3ccc(N4CCN(C(C)C)CC4)cc3)c2nc1-c1cccc2c1CCC2 [Example 62, 5-(2,3-Dihydro-1H-inden-4-yl)-3-(4-(4-isopropylpiperazin-1-yl)phenyl)-6-methoxy-1H-pyrazolo[4,3-b]pyridine] | < 6 nM | > 100 nM | < 6 nM | 6 to 40 nM |  |  |  |
| CCN1CCN(c2ccc(-c3n[nH]c4cc(OC)c(-c5cccc6c5CCC6)nc34)cc2)CC1 [Example 63, 5-(2,3-Dihydro-1H-inden-4-yl)-3-(4-(4-ethylpiperazin-1-yl)phenyl)-6-methoxy-1H-pyrazolo[4,3-b]pyridine] | < 6 nM | 40 to 100 nM | < 6 nM | 6 to 40 nM |  |  |  |
| COc1cc2[nH]nc(-c3cnn(C4CN(S(=O)(=O)CCO)C4)c3)c2nc1-c1cccc2c1CCC2 [Example 150, 2-((3-(4-(5-(2,3-Dihydro-1H-inden-4-yl)-6-methoxy-1H-pyrazolo[4,3-b]pyridin-3-yl)-1H-pyrazol-1-yl)azetidin-1-yl)sulfonyl)ethan-1-ol] | < 6 nM | 40 to 100 nM | < 6 nM |  |  |  | 40 to 100 nM |
| COc1cc2[nH]nc(-c3ccc(C4CN(C(=O)CCO)C4)nc3)c2nc1-c1cccc2c1CCC2 [Example 175, 1-(3-(5-(5-(2,3-Dihydro-1H-inden-4-yl)-6-methoxy-1H-pyrazolo[4,3-b]pyridin-3-yl)pyridin-2-yl)azetidin-1-yl)-3-hydroxypropan-1-one] | < 6 nM |  | < 6 nM | 6 to 40 nM | 6 to 40 nM |  |  |
| COc1cc2[nH]nc(-c3ccc(N4CCOCC4)nc3)c2nc1-c1cccc2c1CCC2 [Example 58, 4-(5-(5-(2,3-Dihydro-1H-inden-4-yl)-6-methoxy-1H-pyrazolo[4,3-b]pyridin-3-yl)pyridin-2-yl)morpholine] | < 6 nM | 40 to 100 nM | < 6 nM |  |  |  | 40 to 100 nM |
